Literature values, collected in patent US6555228B2, “Bio-supportive medium, and methods of making and using the same” (priority 2000, dated 2003).

Legend:
[1] = tested on: Torla (=Candida) utilis; conditions: pH 7, simple form
[2] = tested on: Ophyotrocha Labronica; conditions: 0.1 mg L^−1 of copper
[3] = tested on: Artemia salina; conditions: 1.0 mg L^−1 of copper
[4] = tested on: most habitats
[5] = tested on: several dinoflagelates; conditions: until organic chelation occurs
[6] = tested on: some species
[7] = tested on: other classes of organisms
[8] = tested on: Barnacles and zebra mussels
[9] = tested on: Thalassiosira weissflogii; conditions: very low concentrations

Row | Compound | amount of copper toxic to Torla (=Candida) utilis [1] | growth rate of Ophyotrocha Labronica [2] | growth rate of Artemia salina [3] | generally available copper with no measurable negative effect [4] | effect of copper on dinoflagelates [5] | lethal dose [6] | concentration at which biolimiting occurs [7] | tolerance of copper [8] | effect of zinc ion activity on growth [9]
1 | [Cu+2] [copper] | 20 mg | decreased significantly | no change | below 0.62 mg/l | inhibit | 10 ppm | ≥ 40 ppm | can not tolerate any copper | 
2 | [Zn+2] [zinc] |  |  |  |  |  |  |  |  | growth limiting effect
